Results published in patent US9981954B2, “2-(pyrazin-2-ylcarbonylaminomethyl) benzimidazolium compounds as epithelial sodium channel inhibitors” (Boehringer Ingelheim International GmbH, priority 2015, dated 2018).

Columns and labels:
[1] = molecular target: T1, ENaC (Epithelial Sodium Channel), Mouse kidney M-1 cells (Mus musculus, UniProt Q61180+Q9WU38+Q9WU39); assay: Ussing Chamber assay: inhibition of amiloride sensitive short circuit current in M-1 cells; assay type: cell-based; conditions: apical application, 37° C.
T1 construct: Mouse kidney M-1 cells were cultivated in DMEM containing 5% FCS and 5 μM dexamethasone; endogenous in cells; host or cells: Mouse kidney M-1 cells (polarised on transwell filters, dexamethasone-treated)
T1 sequence (Q61180 1-699): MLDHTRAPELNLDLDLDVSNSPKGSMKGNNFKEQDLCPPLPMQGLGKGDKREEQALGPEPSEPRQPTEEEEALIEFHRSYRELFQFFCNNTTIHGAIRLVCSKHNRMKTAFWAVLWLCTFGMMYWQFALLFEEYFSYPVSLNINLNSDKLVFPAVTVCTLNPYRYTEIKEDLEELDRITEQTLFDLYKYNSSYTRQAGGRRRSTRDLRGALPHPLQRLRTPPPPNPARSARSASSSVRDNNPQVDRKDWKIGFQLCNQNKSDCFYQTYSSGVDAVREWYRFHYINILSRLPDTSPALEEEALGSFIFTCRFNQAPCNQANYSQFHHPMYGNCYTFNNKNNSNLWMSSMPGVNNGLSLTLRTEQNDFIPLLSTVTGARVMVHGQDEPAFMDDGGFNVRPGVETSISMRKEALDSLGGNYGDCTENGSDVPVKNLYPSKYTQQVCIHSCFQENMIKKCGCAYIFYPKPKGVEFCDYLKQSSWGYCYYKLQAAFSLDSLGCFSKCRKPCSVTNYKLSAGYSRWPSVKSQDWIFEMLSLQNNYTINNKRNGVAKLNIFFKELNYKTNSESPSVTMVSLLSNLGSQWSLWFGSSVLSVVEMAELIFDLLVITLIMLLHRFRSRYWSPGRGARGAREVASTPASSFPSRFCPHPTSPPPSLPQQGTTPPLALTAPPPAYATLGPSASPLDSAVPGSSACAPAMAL
T1 sequence (Q9WU38 1-638): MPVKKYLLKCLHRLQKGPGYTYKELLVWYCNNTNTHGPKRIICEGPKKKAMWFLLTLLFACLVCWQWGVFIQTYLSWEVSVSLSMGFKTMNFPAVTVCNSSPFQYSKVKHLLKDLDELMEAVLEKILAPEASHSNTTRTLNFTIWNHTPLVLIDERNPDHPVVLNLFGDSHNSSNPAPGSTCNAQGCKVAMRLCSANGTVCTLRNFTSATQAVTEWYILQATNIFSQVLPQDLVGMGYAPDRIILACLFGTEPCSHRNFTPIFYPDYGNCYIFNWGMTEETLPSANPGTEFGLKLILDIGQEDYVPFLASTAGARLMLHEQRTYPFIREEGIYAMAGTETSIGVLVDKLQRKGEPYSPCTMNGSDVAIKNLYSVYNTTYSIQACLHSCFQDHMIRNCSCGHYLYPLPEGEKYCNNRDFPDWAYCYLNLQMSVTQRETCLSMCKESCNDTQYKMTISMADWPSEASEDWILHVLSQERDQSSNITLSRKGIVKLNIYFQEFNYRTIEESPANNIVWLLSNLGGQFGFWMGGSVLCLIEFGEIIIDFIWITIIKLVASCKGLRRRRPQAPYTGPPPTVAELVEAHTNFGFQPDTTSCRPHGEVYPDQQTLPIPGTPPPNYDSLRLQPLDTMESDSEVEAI
T1 sequence (Q9WU39 1-655): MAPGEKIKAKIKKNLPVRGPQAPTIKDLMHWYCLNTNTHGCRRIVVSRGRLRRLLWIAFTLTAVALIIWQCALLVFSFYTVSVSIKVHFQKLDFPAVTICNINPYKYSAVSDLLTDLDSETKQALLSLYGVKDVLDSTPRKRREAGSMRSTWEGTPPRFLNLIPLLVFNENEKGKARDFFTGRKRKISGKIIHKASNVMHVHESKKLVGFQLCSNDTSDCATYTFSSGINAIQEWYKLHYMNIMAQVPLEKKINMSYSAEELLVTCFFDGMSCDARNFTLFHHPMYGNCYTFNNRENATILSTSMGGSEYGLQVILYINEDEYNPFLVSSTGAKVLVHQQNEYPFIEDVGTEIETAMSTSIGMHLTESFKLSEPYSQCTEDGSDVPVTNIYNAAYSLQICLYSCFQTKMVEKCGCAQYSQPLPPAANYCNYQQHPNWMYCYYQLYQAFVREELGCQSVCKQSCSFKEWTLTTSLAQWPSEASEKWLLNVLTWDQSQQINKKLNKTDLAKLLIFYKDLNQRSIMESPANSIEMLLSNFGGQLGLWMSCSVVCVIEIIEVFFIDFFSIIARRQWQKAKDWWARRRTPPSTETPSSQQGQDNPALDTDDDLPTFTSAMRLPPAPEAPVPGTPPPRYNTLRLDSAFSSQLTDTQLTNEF
Description: Ussing Chamber: Mouse kidney M-1 cells were cultivated in DMEM containing 5% FCS and 5 μM dexamethasone for 10 to 12 days on polyester transwell filters. Filters were inserted into a teflon-coated well-plate which fit into the ussing chamber system. Prior to measurement the medium of M-1 cells was replaced with Caco-2 transport buffer (Invitrogen, Germany). During measurements, the Ussing chamber temperature was kept at 37° C. Short circuit currents (I_sc) were measured in the voltage-clamp mode with the software package Lab View for data acquisition and analysis. The transepithelial electrical resistance (TEER) was determined by the application of voltage steps of ±5 mV every 5 sec. Compounds were administered at a final concentration of 3 μM or at increasing concentrations (1-3-10 μM) to the apical solution. At the end of each experiment the amiloride sensitive I_SC was measured by adding 3 μM amiloride to the apical compartment. Results are expressed as inhibition in percent of the amiloride effect or as IC50.

[2] = Permeability in CALU-3 cells; assay type: in vitro ADME; conditions: human, CALU-3 monolayers, pH 7.4, 37° C., 10 μM compound; for Papp A→B at 90 min, 10 μM: apical-to-basal; for Papp B→A at 90 min, 10 μM: basal-to-apical
Description: Permeability in CALU-3 Cells:
Permeability measurements across polarized, confluent CALU-3 cell monolayers grown on permeable filter supports are used to provide information on the potential of a compound to pass the lung epithelium.
CALU-3 cells (1-2×10^5 cells/l cm^2 area) are seeded on filter inserts (Costar transwell polycarbonate filters, 0.4 μm pore size) and cultured (for 10-12 days DMEM) until tight monolayers are formed. Compounds of interest are dissolved in appropriate solvent (DMSO, 10 mM stock solution). […] The transport solution (TL) is applied to the apical or basolateral donor side for measuring A-B or B-A permeability (3 filter replicates), respectively. The receiver side contains the same buffer as the donor side. After 30 min of accommodation, samples are collected at the start t0=0 min and at the end of the experiment tn=90 min from the donor and at 0, 30, 60, and 90 min also from the receiver chamber. Volume removed is […] by HTP-4 buffer. The compound concentration in the samples is measured by HPLC-MS/MS or scintillation counting. The permeability coefficient (Papp) and efflux ratio are calculated according to: Papp [cm/s]=(concentration receiver [nM]*volume receiver [mL]/time interval [sec])*(1/filter area)*(1/donor concentration [nM]).

Row | IC50 [1] | Papp A→B at 90 min, 10 μM [2] | Papp B→A at 90 min, 10 μM [2] | SMILES
1 | 3 nM |  |  | CC[n+]1c(CNC(=O)c2nc(Cl)c(N)nc2N)n(CCOCCOCCNC(=O)OC(C)(C)C)c2cc(OC)ccc21 [Example 1.01]
2 | 2 nM |  |  | CC[n+]1c(CNC(=O)c2nc(Cl)c(N)nc2N)n(CC2(CO)COC2)c2cc(OC)ccc21 [Example 1.02]
3 | 8 nM | 0.1 ×10⁻⁶ cm/s | 0.07 ×10⁻⁶ cm/s | CC[n+]1c(CNC(=O)c2nc(Cl)c(N)nc2N)n(CCCc2ccc(OCP(C)(C)=O)cc2)c2cc(OC)ccc21.O=C([O-])C(F)(F)F [Example 1.03]
4 | 2 nM |  |  | COc1ccc2c(c1)n(CCF)c(CNC(=O)c1nc(Cl)c(N)nc1N)[n+]2CCOCCOCCO [Example 1.04]
5 | 0.4 nM |  |  | C=CC[n+]1c(CNC(=O)c2nc(Cl)c(N)nc2N)n(CCOCCOCCO)c2ccc(OC)cc21 [Example 1.05]
6 | 2 nM |  |  | COc1ccc2c(c1)[n+](CCF)c(CNC(=O)c1nc(Br)c(N)nc1N)n2CCOCCOCCO [Example 2.01]
7 | 10 nM |  |  | CCn1c(CNC(=O)c2nc(Cl)c(N)nc2N)[n+](CC(=O)N(CCOC)CCOC)c2ccc(OC)cc21 [Example 3.01]
8 | 5 nM | 0.06 ×10⁻⁶ cm/s | 0.2 ×10⁻⁶ cm/s | CCn1c(CNC(=O)c2nc(Cl)c(N)nc2N)[n+](CC(=O)N2CCOCC2)c2ccc(OC)cc21.[Br-] [Example 3.02]
9 | 4 nM |  |  | CCNC(=O)C[n+]1c(CNC(=O)c2nc(Cl)c(N)nc2N)n(CC)c2cc(OC)ccc21 [Example 3.03]
10 | 3 nM |  |  | CCn1c(CNC(=O)c2nc(Cl)c(N)nc2N)[n+](CC(=O)NCCOC)c2ccc(OC)cc21 [Example 3.04]
11 | 12 nM |  |  | CCn1c(CNC(=O)c2nc(Cl)c(N)nc2N)[n+](CC(=O)N2CCN(C)CC2)c2ccc(OC)cc21 [Example 3.05]
12 | 8 nM | 0.1 ×10⁻⁶ cm/s | 0.03 ×10⁻⁶ cm/s | CCn1c(CNC(=O)c2nc(Cl)c(N)nc2N)[n+](CC(=O)NCCN(C)C)c2ccc(OC)cc21.O=C(O)C(F)(F)F.O=C([O-])C(F)(F)F [Example 3.06]
13 | 39 nM |  |  | CCn1c(CNC(=O)c2nc(Cl)c(N)nc2N)[n+](CC(=O)N(C)CCCN(C)C)c2ccc(OC)cc21 [Example 3.07]
14 | 4 nM | 0.1 ×10⁻⁶ cm/s | 0.08 ×10⁻⁶ cm/s | CCn1c(CNC(=O)c2nc(Cl)c(N)nc2N)[n+](CC(=O)N2CCN(C(=O)OC(C)(C)C)CC2)c2ccc(OC)cc21.[Br-] [Example 3.08]
15 | 33 nM |  |  | CCn1c(CNC(=O)c2nc(Cl)c(N)nc2N)[n+](CC(=O)N(C)CCN(C)C)c2ccc(OC)cc21 [Example 3.09]
16 | 1 nM |  |  | CCn1c(CNC(=O)c2nc(Cl)c(N)nc2N)[n+](CC(N)=O)c2ccc(OC)cc21 [Example 3.10]

Row | IC50 [1] | Papp A→B at 90 min, 10 μM [2] | Papp B→A at 90 min, 10 μM [2] | SMILES
17 | 110 nM |  |  | CCn1c(CNC(=O)c2nc(Cl)c(N)nc2N)[n+](CC(=O)N2CCC(N(C)C)CC2)c2ccc(OC)cc21 [Example 3.11]
18 | 12 nM | 0.09 ×10⁻⁶ cm/s | 0.3 ×10⁻⁶ cm/s | CCn1c(CNC(=O)c2nc(Cl)c(N)nc2N)[n+](CC(=O)NC2CCN(C(=O)OC(C)(C)C)CC2)c2ccc(OC)cc21.[Br-] [Example 3.12]
19 | 7 nM | 0.07 ×10⁻⁶ cm/s | 0.2 ×10⁻⁶ cm/s | CCn1c(CNC(=O)c2nc(Cl)c(N)nc2N)[n+](CC(=O)N(C)CCOC)c2ccc(OC)cc21.[Br-] [Example 3.13]
20 | 2 nM |  |  | CCn1c(CNC(=O)c2nc(Cl)c(N)nc2N)[n+](CC(=O)NC)c2ccc(OC)cc21 [Example 3.14]
21 | 20 nM |  |  | CCn1c(CNC(=O)c2nc(Cl)c(N)nc2N)[n+](CC(=O)N(CCO)CCO)c2ccc(OC)cc21 [Example 3.15]
22 | 4 nM |  |  | CCn1c(CNC(=O)c2nc(Cl)c(N)nc2N)[n+](CC(=O)NCCCN(C)C(=O)OC(C)(C)C)c2ccc(OC)cc21 [Example 3.17]
23 | 28 nM |  |  | CCn1c(CNC(=O)c2nc(Cl)c(N)nc2N)[n+](CC(=O)N2CCCN(C(=O)OC(C)(C)C)CC2)c2ccc(OC)cc21 [Example 3.21]
24 | 1 nM |  |  | CCn1c(CNC(=O)c2nc(Cl)c(N)nc2N)[n+](CCCC(=O)NCCN(C)C)c2ccc(OC)cc21 [Example 4.01]
25 | 4 nM |  |  | CC[n+]1c(CNC(=O)c2nc(Cl)c(N)nc2N)n(CCOCCOCCNC(=O)c2nc(Cl)c(N)nc2N)c2cc(OC)ccc21 [Example 5.01]
26 | 47 nM | 0.3 ×10⁻⁶ cm/s | 0.2 ×10⁻⁶ cm/s | CCn1c(CNC(=O)c2nc(Cl)c(N)nc2N)[n+](CC(=O)N2CCNCC2)c2ccc(OC)cc21.Cl.[Cl-] [Example 6.01]
27 | 4 nM |  |  | CC[n+]1c(CNC(=O)c2nc(Cl)c(N)nc2N)n(CCOCCOCCN)c2cc(OC)ccc21 [Example 6.02]
28 | 17 nM |  |  | CCn1c(CNC(=O)c2nc(Cl)c(N)nc2N)[n+](CC(=O)NC2CCNCC2)c2ccc(OC)cc21 [Example 6.03]
29 | 63 nM |  |  | CCn1c(CNC(=O)c2nc(Cl)c(N)nc2N)[n+](CC(=O)N2CCCNCC2)c2ccc(OC)cc21 [Example 6.04]
30 | 1 nM | 0.07 ×10⁻⁶ cm/s | 0.2 ×10⁻⁶ cm/s | CC[n+]1c(CNC(=O)c2nc(Cl)c(N)nc2N)n(C2CCN(C(=O)NCCOC)CC2)c2ccccc21.O=C[O-] [Example 7.01]
31 | 0.4 nM |  |  | CCn1c(CNC(=O)c2nc(Cl)c(N)nc2N)[n+](CCNS(C)(=O)=O)c2ccc(OC)cc21 [Example 9.01]
32 | 2 nM |  |  | CC[n+]1c(CNC(=O)c2nc(Cl)c(N)nc2N)n(CC2(CCc3ccccc3)CCN(C(=O)NC3CCN(C)CC3)CC2)c2ccccc21 [Example 10.01]
